Laboratory results published in patent publication US8975252B2, “Morpholine derivative” (Shanghai Pharmaceuticals Holding Co., Ltd., priority 2007, dated 2015).
Where a name gives a salt, the structure may show the parent alone. Read-outs that look alike come from different tables or passages of the source.

Molecular target: Recombinant human renin (Homo sapiens (Human), UniProt P00797)
Assay: Inhibitory activity against human renin (fluorogenic synthetic peptide substrate)
Type: biochemical
Protocol: Inhibitory Activity Against Human Renin
A renin substrate of synthetic peptide (Nma-KHPFH LVIHK(Dnp)-NH2) and test compound were mixed, and fluorescence intensity was assayed using a fluorophotometer before starting an enzymatic reaction (exciting wavelength: 340 nm, measuring wavelength: 460 nm). Recombinant human renin was added and the mixture was incubated at 37° C. for an hour, and the fluorescence intensity was measured after the reaction using a fluorophotometer (exciting wavelength: 340 nm, measuring wavelength: 460 nm). Renin activity was evaluated on the ground of fluorescence intensity which was obtained by deduction of the intensity before the reaction from the intensity after the reaction, and 50% inhibitory concentration (IC50) was calculated from renin activities under the existence of various concentration of the tested compound.

[1] = recombinant human renin, substrate Nma-KHPFH LVIHK(Dnp)-NH2, 37° C. for an hour, fluorescence, read-out: Inhibitory Activity against human Renin(IC50)

Chain of Recombinant human renin (P00797 67-406): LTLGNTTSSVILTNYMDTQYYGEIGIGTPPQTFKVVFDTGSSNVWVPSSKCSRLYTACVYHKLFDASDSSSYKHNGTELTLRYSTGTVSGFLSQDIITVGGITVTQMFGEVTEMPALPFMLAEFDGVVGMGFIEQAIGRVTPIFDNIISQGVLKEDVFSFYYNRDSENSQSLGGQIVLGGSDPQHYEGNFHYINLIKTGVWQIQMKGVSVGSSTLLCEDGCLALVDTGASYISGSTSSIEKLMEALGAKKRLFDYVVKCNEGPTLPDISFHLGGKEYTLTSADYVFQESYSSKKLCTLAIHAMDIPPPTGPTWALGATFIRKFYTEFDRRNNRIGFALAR

SMILES	IC50 (assay for renin-inhibition, read-out: renin-inhibition IC50) [nM]	IC50 [1] [nM]
COCCCOc1cc(CN(C(=O)[C@H]2CNCCO2)C2CC2)ccc1OC [(2R)—N-cyclopropyl-N-[4-methoxy-3-(3-methoxypropoxy)benzyl]morpholine-2-carboxamide hydrochloride]	< 1000	–
COCCCOc1cc(CN(C(=O)[C@H]2CNCCO2)C2CC2)cc2ccccc12 [Example 4, (2R)—N-cyclopropyl-N-{[4-(3-methoxypropoxy)-2-naphthyl]methyl}morpholin-2-carboxamide hydrochloride]	–	30.2
COCCCn1cc(CN(C(=O)[C@H]2CNCCO2)C2CC2)c2ccccc21 [Example 39]	–	13
